Experimental data: patent publication US6809120B1, “Composition containing propargylamine for enhancing cancer therapy” (University of Saskatchewan Technologies Inc., priority 1998, dated 2004)

Tests used:
P388 leukemia cells = experiment: In vivo assessment of anticancer drug modulators: relative cell survival of clonogenic P388 leukemia cells in femurs of mice; settings: DBA/2J mice; for increase of cisplatinum toxicity to the leukemia cells in the presence of modulator / enhanced killing by cisplatinum of P388 cells (result in words): ip, 48 h; for increase of cisplatinum toxicity to the leukemia cells in the presence of modulator: cisplatinum 0.2 mg plus modulator; for enhanced killing by cisplatinum of P388 cells (result in words): with cisplatinum 0.2 mg, Histidinol 5 mg/injection or R-2HPA 0.38 ug/injection x5, FIG. 3
Description: (§1) Seven groups of mice were treated and assessed in this model as follows:
(§2) P388 cells (1 million) were injected into the tail vein of 22 female DBA/2J mice (Protocol first developed in reference 6 and 8). The mice were then randomly divided into the above groups and injected (ip) with drugs 96 h later. Doses were cisplatinum 0.2 mg at 0 hour; Histidinol 5 mg/injection and R-2HPA 0.38 ug/injection; administered 5 times at −2, 0, +2, +4, and +6 hours. 48 h after drug treatment, cells from the femurs of the mice were harvested, washed and plated (at log10 dilutions) so as to allow quantitative and specific relative cell survival values to be generated for the responses of normal femoral bone marrow cells (specifically, CFU-C/GM or granulocyte/macrophage precursor cells) and clonogenic P388 leukemia cells (8).

[1] = tested on: normal femoral bone marrow cells (CFU-C/GM); experiment: In vivo assessment of anticancer drug modulators: relative cell survival of normal femoral bone marrow cells in P388-bearing mice; settings: for toxicity of cisplatinum to the marrow cells in the presence of modulator / protection of normal bone marrow cells (result in words): DBA/2J mice with P388, ip; for toxicity of cisplatinum to the marrow cells in the presence of modulator: cisplatinum 0.2 mg plus modulator, 48 h; for protection of normal bone marrow cells (result in words): with cisplatinum 0.2 mg, Histidinol 5 mg/injection or R-2HPA 0.38 ug/injection x5, 48 h after treatment, FIG. 2
Description: as §1, §2

rat2 cells = experiment: In vitro clonogenic cell survival assay, modulation of cisplatinum toxicity in normal cells (RATIO method); format: cell-based, rat; settings: with cisplatinum
Source text: (§3) The protocol detailed below can be used for any normal/tumorigenic cell pair which will attach to plastic. Non-adherent lines (which includes most tumor cells, including NW16; consult references 5-10) require quantitation in soft agar. The present experiments are based on i) rat2 cells, a phenotypically normal, established rat fibroblast line and, ii) a tumorigenic derivative thereof, NW16 cells, which are rat2 cells transformed by a Fujinami sarcoma virus oncogene (see work of A. Pawson and P130^gag-fps). Rat2 and NW16 cells are maintained in a sub-confluent randomly-proliferating state in Dulbecco's modified minimal essential media with 10% (vol/vol) calf serum in plates incubated at 37° C. in a humidified CO2 (10%) incubator. All experiments reported rely on clonogenic cell survival assays (see references 4-6). Assays using rat2 (normal cells) were performed as follows: cells are exposed, in 10 cm culture dishes, to various drugs in media plus serum for varying lengths of time; seeding is at varying cell numbers, over log10 ranges, depending upon the degree of killing anticipated. [For the figure presented, incubation was for 72 hours prior to washing and assessment of clonogenic survival]. Both control and the experimental cultures are then gently washed, twice, with phosphate buffered saline, then once more with media minus serum, and then left in media plus serum, undisturbed until macroscopic colonies appear (7-9 days of incubation). The colonies are then fixed and stained with saturated methylene blue in 50% methanol and counted. The number of colonies, evaluated from 2 or more sets of duplicate cultures seeded at initial densities differing by factors of 10, are determined and converted to relative number of colonies, using the 0-hour control value as 1.0. Assays of NW16 cells were similar; however, because these cells are poorly adherent, following drug exposure, the washing procedure is modified, as is the quantitation of survivors step. In the latter case, quantitation requires plating the cells in soft agar (references 5-10).
A simplified presentation of the data, by the RATIO method, is show in FIG. 1. […] Ratios greater than unity indicate that the modulator has conferred a protective response, whereas ratios less than unity indicate an enhanced cell killing.

NW16 cells = experiment: In vitro clonogenic cell survival assay in soft agar, modulation of cisplatinum toxicity in tumorigenic cells (RATIO method); format: cell-based, rat; settings: for enhanced killing of tumor cells in the presence of cisplatinum (result in words): in vitro fibroblast model
Source text: as §3, with “5-10). […]” for “5-10).”

| Compound | increase of cisplatinum toxicity to the leukemia cells in the presence of modulator (P388 leukemia cells) [fold] | enhanced killing by cisplatinum of P388 cells (result in words) (P388 leukemia cells) | toxicity of cisplatinum to the marrow cells in the presence of modulator [1] | protection of normal bone marrow cells (result in words) [1] | protection of normal fibroblasts from cisplatinum (result in words) (rat2 cells; FIG. 1) | enhanced killing of tumor cells in the presence of cisplatinum (result in words) (NW16 cells) | also measured |
| --- | --- | --- | --- | --- | --- | --- | --- |
| N[C@H](CO)Cc1c[nH]cn1 [histidinol, L-histidinol, reference compound] | ~1000 | enhanced the killing by cisplatinum of P388 cells | essentially eliminated | effective at protecting normal bone marrow cells | exhibits similar properties | – | – |
| C#CCN(C)[C@H](C)CCCCC [R-2HMP, R-2-heptyl-methylpropargylamine] | – | – | – | – | protect normal cells | enhance the killing of tumor cells | concentration at which the effect reverses to a protective effect in tumorigenic cells (NW16 cells; NW16 tumorigenic cells, with cisplatinum, FIG. 1): ≥ 10^−9 M |
| N.N.[Cl][Pt][Cl] [cisplatinum] | – | – | – | – | – | – | effectiveness at killing normal marrow cells relative to intrafemoral leukemia cells, drug used alone ([1]; cisplatinum 0.2 mg ip alone, DBA/2J mice with P388, 48 h): about 100 times |
| C#CCN(C)[C@@H](C)CCCCC [S-2HMP] | – | – | – | – | inactive | – | – |
| C#CCN[C@H](C)CCCCC [R-2HPA, R-2-heptyl-propargylamine] | ~1000 | enhanced the killing by cisplatinum of P388 cells | essentially eliminated | effective at protecting normal bone marrow cells | protect normal cells | enhance the killing of tumor cells | therapeutic index between protection of healthy normal cells and killing of cancerous cells (P388 leukemia cells; R-2HPA 0.38 ug dose with cisplatinum): about 50,000; protection of normal fibroblasts from cisplatinum (result in words) (rat2 cells; FIG. 1, listed as R-2BPA): more potent |
| R-deprenyl [reference compound] | – | – | – | – | less efficacious | – | – |
